Experiments:
Assay type in all cases: physicochemical
[1] = 6 month dry powder stability, Alpha Naphthol content by HPLC
Excerpt: (§1) NUC-3373 prepared according to Example 3 and Comparative Example 4 was packed into a transparent LDPE bag which was then filled with nitrogen and tied with a strip seal. This bag was then placed into another transparent LDPE bag which was also filled with nitrogen. A silica gel packet was placed between the two bags before the outermost bag was tied with a strip seal. These bags were then placed in a triple laminated sun light barrier bag which was sealed with a heat sealer. The bags were kept in a HDPE container.
(§2) NUC-3373 was initially assayed by HPLC after manufacture (0 months) then after 1 and 2 and/or 3 and 6 months of storage at 2-8° C., 25° C. or 40° C.
The Alpha Naphthol content of the same batches was also determined by HPLC. The levels of the alpha naphthol impurity is a key indicator of stability of the tested material.

[2] = 6 month dry powder stability, HPLC assay
Excerpt: as §1, §2

[3] = Solution stability, alpha naphthol (0.60 RRT) in DMA:Saline (80:20 v/v); set-up: 0.60 RRT (Alpha Naphthol): unit not given here; conditions: 400 mg/mL in DMA:Saline (80:20 v/v)
Procedure: Stability data is also provided in Table 4, which compares the levels of alpha naphthol (0.60 RRT) present in solutions of 400 mg/mL NUC-3373, prepared by Example 3 or 4, above, in DMA:Saline (80:20 v/v) at different temperatures measured over set periods of time. The tested solutions are suitable for infusion and injection and the temperatures and times measured are representative of the environments that solutions suitable for infusion and injection would typically be stored in.
In Table 4 the two values provided for each temperature at each time period, separated by “/”, represent different preparations (samples) of that synthesis.

In the case of `C[C@H](NP(=O)(OC[C@H]1O[C@@H](n2cc(F)c(=O)[nH]c2=O)CC1O)Oc1cccc2ccccc12)C(=O)OCc1ccccc1` (stereo partly drawn) [Example 3, Batch 2, 5-fluoro-2′-deoxyuridine-5′-O-[1-naphthyl (benzoxy-L-alaninyl)] phosphate], the “Increase after 6 months, Alpha Naphthol by HPLC” value (“Increase after 6 months” for short) ([1]; 2-8 ° C.) is reported as “None”, the “Alpha Naphthol by HPLC (% w/w)” value ([1]; 2-8 ° C., 0 months) is reported as 0.44 % w/w and the “Alpha Naphthol by HPLC (% w/w)” value ([1]; 2-8 ° C., 3 months) is reported as 0.46 % w/w. The “Alpha Naphthol by HPLC (% w/w)” value ([1]; 2-8 ° C., 6 months) was 0.43 % w/w, the “Increase after 6 months” value ([1]; 25 ° C.) was “None” and the “Alpha Naphthol by HPLC (% w/w)” value ([1]; 25 ° C., 0 months) was 0.44 % w/w. The “Alpha Naphthol by HPLC (% w/w)” value ([1]; 25 ° C., 3 months) was 0.45 % w/w, the “Alpha Naphthol by HPLC (% w/w)” value ([1]; 25 ° C., 6 months) was 0.42 % w/w and the “Increase after 6 months” value ([1]; 40 ° C.) was “None”. For the same molecule, the “Alpha Naphthol by HPLC (% w/w)” value ([1]; 40 ° C., 0 months) was 0.44 % w/w, the “Alpha Naphthol by HPLC (% w/w)” value ([1]; 40 ° C., 1 month) was 0.44 % w/w and the “Alpha Naphthol by HPLC (% w/w)” value ([1]; 40 ° C., 2 months) was 0.42 % w/w. For the same molecule, the “Alpha Naphthol by HPLC (% w/w)” value ([1]; 40 ° C., 3 months) was 0.42 % w/w, the “Alpha Naphthol by HPLC (% w/w)” value ([1]; 40 ° C., 6 months) was 0.38 % w/w and the “Decrease after 6 months, HPLC assay” value ([2]; 2-8 ° C.) was “None”. The “HPLC assay (% w/w on anhydrous and solvent free basis)” value ([2]; 2-8 ° C., 0 months) was 100.2 % w/w, the “HPLC assay (% w/w on anhydrous and solvent free basis)” value ([2]; 2-8 ° C., 3 months) was 101.3 % w/w and the “HPLC assay (% w/w on anhydrous and solvent free basis)” value ([2]; 2-8 ° C., 6 months) was 100.4 % w/w. For the same molecule, the “Decrease after 6 months, HPLC assay” value ([2]; 25 ° C.) was “None”, the “HPLC assay (% w/w on anhydrous and solvent free basis)” value ([2]; 25 ° C., 0 months) was 100.2 % w/w and the “HPLC assay (% w/w on anhydrous and solvent free basis)” value ([2]; 25 ° C., 3 months) was 101.1 % w/w. The “HPLC assay (% w/w on anhydrous and solvent free basis)” value ([2]; 25 ° C., 6 months) was 100.7 % w/w, the “Decrease after 6 months, HPLC assay” value ([2]; 40 ° C.) was “None” and the “HPLC assay (% w/w on anhydrous and solvent free basis)” value ([2]; 40 ° C., 0 months) was 100.2 % w/w. The “HPLC assay (% w/w on anhydrous and solvent free basis)” value ([2]; 40 ° C., 1 month) was 99.7 % w/w, the “HPLC assay (% w/w on anhydrous and solvent free basis)” value ([2]; 40 ° C., 2 months) was 100.9 % w/w and the “HPLC assay (% w/w on anhydrous and solvent free basis)” value ([2]; 40 ° C., 3 months) was 101.5 % w/w. For the same molecule, the “HPLC assay (% w/w on anhydrous and solvent free basis)” value ([2]; 40 ° C., 6 months) was 100.4 % w/w, the “0.60 RRT (Alpha Naphthol)” value ([3]; After 1 month at 2-8° C., first preparation (before "/")) was 0.02/0.02 and the “0.60 RRT (Alpha Naphthol)” value ([3]; After 1 month at 2-8° C., second preparation (after "/")) was 0.02/0.02. For the same molecule, the “0.60 RRT (Alpha Naphthol)” value ([3]; After 1 month at 25 ± 5° C., first preparation (before "/")) was 0.04/0.04, the “0.60 RRT (Alpha Naphthol)” value ([3]; After 1 month at 25 ± 5° C., second preparation (after "/")) was 0.04/0.04 and the “0.60 RRT (Alpha Naphthol)” value ([3]; After 3 months at 2-8° C., first preparation (before "/")) was 0.02/0.02. For the same molecule, the “0.60 RRT (Alpha Naphthol)” value ([3]; After 3 months at 2-8° C., second preparation (after "/")) was 0.02/0.02, the “0.60 RRT (Alpha Naphthol)” value ([3]; After 3 months at 25 ± 5° C., first preparation (before "/")) was 0.11/0.11 and the “0.60 RRT (Alpha Naphthol)” value ([3]; After 3 months at 25 ± 5° C., second preparation (after "/")) was 0.11/0.11. The “0.60 RRT (Alpha Naphthol)” value ([3]; After 6 months at 2-8° C., first preparation (before "/")) was 0.03, the “0.60 RRT (Alpha Naphthol)” value ([3]; After 6 months at 2-8° C., second preparation (after "/")) was 0.02 and the “0.60 RRT (Alpha Naphthol)” value ([3]; After 6 months at 25 ± 5° C., first preparation (before "/")) was 0.34. The “0.60 RRT (Alpha Naphthol)” value ([3]; After 6 months at 25 ± 5° C., second preparation (after "/")) was 0.35, the “0.60 RRT (Alpha Naphthol)” value ([3]; After 9 months at 2-8° C., first preparation (before "/")) was 0.03/0.03 and the “0.60 RRT (Alpha Naphthol)” value ([3]; After 9 months at 2-8° C., second preparation (after "/")) was 0.03/0.03. For the same molecule, the “0.60 RRT (Alpha Naphthol)” value ([3]; After 9 months at 25 ± 5° C., first preparation (before "/")) was 0.89/0.89, the “0.60 RRT (Alpha Naphthol)” value ([3]; After 9 months at 25 ± 5° C., second preparation (after "/")) was 0.89/0.89 and the “0.60 RRT (Alpha Naphthol)” value ([3]; After 12 months at 2-8° C., first preparation (before "/")) was 0.04/0.04. For the same molecule, the “0.60 RRT (Alpha Naphthol)” value ([3]; After 12 months at 2-8° C., second preparation (after "/")) was 0.04/0.04, the “0.60 RRT (Alpha Naphthol)” value ([3]; After 12 months at 25 ± 5° C., first preparation (before "/")) was 1.60/1.60 and the “0.60 RRT (Alpha Naphthol)” value ([3]; After 12 months at 25 ± 5° C., second preparation (after "/")) was 1.60/1.60. The “0.60 RRT (Alpha Naphthol)” value ([3]; After 15 days at 2-8° C., first preparation (before "/")) was 0.01/0.01, the “0.60 RRT (Alpha Naphthol)” value ([3]; After 15 days at 2-8° C., second preparation (after "/")) was 0.01/0.01 and the “0.60 RRT (Alpha Naphthol)” value ([3]; After 15 days at 25 ± 5° C., first preparation (before "/")) was 0.03. For the same molecule, the “0.60 RRT (Alpha Naphthol)” value ([3]; After 15 days at 25 ± 5° C., second preparation (after "/")) was 0.02 and the “0.60 RRT (Alpha Naphthol)” value ([3]; Initial) was 0.01.

Reference: patent US20250296948A1, “SYNTHESIS OF NUCLEOSIDE DERIVATIVES” (Nucana plc, priority 2022, published 2025)
